Ki and Ratio data for three molecules are collected here from ChEMBL document CHEMBL1125171, “Approaches to isozyme-specific inhibitors. 17. Attachment of a selectivity-inducing substituent to a multisubstrate adduct. Implications for facilitated design of potent, isozyme-selective inhibitors” (J Med Chem, 1990).

The target of assay [1] is S-adenosylmethionine synthase isoform type-2 (Rattus norvegicus) (UniProt P18298). Put plainly: Inhibition constants against ATP substrate site of M-T (Novikoff Ascitic Hepatoma form) variant of rat Methionine adenosyltransferase.
Chain of S-adenosylmethionine synthase isoform type-2 (Rattus norvegicus) (P18298 whole entry, looked up, stated change not applied, canonical isoform): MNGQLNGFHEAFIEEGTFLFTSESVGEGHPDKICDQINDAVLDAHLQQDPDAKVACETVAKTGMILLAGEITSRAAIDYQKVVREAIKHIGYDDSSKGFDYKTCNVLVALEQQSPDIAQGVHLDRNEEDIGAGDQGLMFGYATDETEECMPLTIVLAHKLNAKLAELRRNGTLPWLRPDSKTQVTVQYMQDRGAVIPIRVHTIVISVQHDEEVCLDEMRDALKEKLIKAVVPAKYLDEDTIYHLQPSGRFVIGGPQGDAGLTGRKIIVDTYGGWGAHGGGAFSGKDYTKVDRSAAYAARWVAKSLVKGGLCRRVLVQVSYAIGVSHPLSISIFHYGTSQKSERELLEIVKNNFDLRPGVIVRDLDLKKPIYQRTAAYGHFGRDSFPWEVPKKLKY
Assay [2] is described as follows: Ratio of inhibitor constant for ATP substrate site of methionine adenosyl transferase and ATP substrate site of M-T variant methionine adenosyl transferase.
The nature of assay [3]: Ratio of inhibitor constant for ATP substrate site of methionine adenosyl transferase and ATP substrate site of M-2 variant methionine adenosyl transferase.
The target of assay [4] is S-adenosylmethionine synthase isoform type-2 (Rattus norvegicus) (UniProt P18298). Nature of the assay: Inhibition constants against ATP substrate site of M-2 (kidney form) variant of rat Methionine adenosyltransferase.
Assay [5] has the same target. Put plainly: Inhibition constants against Met (L-methionine)P substrate site of M-T (Novikoff Ascitic Hepatoma form) variant of rat Methionine adenosyltransferase.
A short description of assay [6]: Ratio of inhibitor constant for Met substrate site of methionine adenosyl transferase and ATP substrate site of M-T variant methionine adenosyl transferase.
Assay [7] concerns the target S-adenosylmethionine synthase isoform type-2 (Rattus norvegicus) (UniProt P18298). Put plainly: Inhibition constants with Met (L-methionine) substrate site of M-2 (kidney form) variant of rat Methionine adenosyltransferase.
Assay [8] can be described thus: Ratio of inhibitor constant for Met substrate site of methionine adenosyl transferase and ATP substrate site of M-2 variant methionine adenosyl transferase.

As a reminder, the Ki is the dissociation constant of the complex between target and ligand, obtained from inhibition or displacement. Read a high Ki as weaker binding. In the case of `CCCCSc1ncnc2c1ncn2[C@@H]1O[C@H](COP(=O)(O)OP(=O)(O)OP(=O)(O)O)[C@@H](O)[C@H]1O`, the Ki in assay [1] turned out to be 100000 nM; in assay [4] it was 310000 nM. Also, the results for the Ratio in assay [2] and in assay [3] were 1.4 and 0.45, respectively.
Turning to `Nc1ncnc2c1ncn2[C@@H]1O[C@H]([C@H](CSCCC(N)C(=O)O)OP(=O)(O)OP(=O)(O)NP(=O)(O)O)[C@@H](O)[C@H]1O` (stereo not given in full), the Ki worked out at 670 nM in assay [5], 210 nM in assay [1], 650 nM in assay [7] and 130 nM in assay [4]. The Ratio in assay [6] turned out to be 22; in assay [2], 670; in assay [3], 1080; in assay [8], 7.7.
Consider `CCCCSc1ncnc2c1ncn2[C@@H]1O[C@H]([C@H](CSCC[C@H](N)C(=O)O)OP(=O)(O)OP(=O)(O)NP(=O)(O)O)[C@@H](O)[C@H]1O`, for which the inhibition constant (Ki) in assay [5] is 740 nM; in assay [1], 110 nM; in assay [7] it was 2900 nM; in assay [4] it was 120 nM. The Ratio in assay [6] is 22; in assay [2], 1270; in assay [3], 1170; in assay [8], 1.7.
